Test results from patent US9765075B2, “Substituted bridged urea analogs as sirtuin modulators” (GLAXOSMITHKLINE LLC, priority 2013, dated 2017).

Biological target: T1, SIRT1 (Homo sapiens, UniProt Q96EB6)
T1 sequence (Q96EB6 1-747): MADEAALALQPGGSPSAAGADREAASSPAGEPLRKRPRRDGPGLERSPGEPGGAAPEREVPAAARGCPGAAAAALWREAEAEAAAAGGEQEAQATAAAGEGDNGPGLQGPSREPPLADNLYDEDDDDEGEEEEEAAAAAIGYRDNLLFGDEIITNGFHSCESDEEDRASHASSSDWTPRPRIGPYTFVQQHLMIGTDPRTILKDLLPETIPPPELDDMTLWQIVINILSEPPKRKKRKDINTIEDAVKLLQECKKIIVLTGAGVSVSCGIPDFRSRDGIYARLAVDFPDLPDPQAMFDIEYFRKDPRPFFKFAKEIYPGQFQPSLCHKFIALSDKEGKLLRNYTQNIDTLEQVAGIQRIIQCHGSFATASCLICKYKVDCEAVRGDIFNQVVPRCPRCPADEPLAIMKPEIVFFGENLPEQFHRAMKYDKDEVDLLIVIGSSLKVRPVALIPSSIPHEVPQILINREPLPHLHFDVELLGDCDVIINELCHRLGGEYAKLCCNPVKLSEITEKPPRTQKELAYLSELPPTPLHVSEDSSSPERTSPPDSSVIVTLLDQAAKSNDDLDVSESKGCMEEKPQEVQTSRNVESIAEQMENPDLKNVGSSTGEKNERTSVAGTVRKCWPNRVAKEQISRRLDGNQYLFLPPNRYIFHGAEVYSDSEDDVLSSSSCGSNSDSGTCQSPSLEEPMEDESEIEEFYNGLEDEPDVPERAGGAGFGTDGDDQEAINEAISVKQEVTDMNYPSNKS
Assay: Trp mass spectrometry assay (SIRT1 activation)
Format: biochemical
Settings: Trp mass spectrometry assay; for Tryp AVG EC1.5 (μM): EC1.5 = concentration of test compound that results in 150% activation of SIRT1; for Emax: percent maximum fold activation of SIRT1, read-out: Tryp % Fold Act
Text: Mass spectrometry based assays were used to identify modulators of SIRT1 activity. […] The peptide was labeled with the fluorophore 5TMR (excitation 540 nm/emission 580 nm) at the C-terminus. The sequence of the peptide substrate was based on p53 with several modifications. In addition, the methionine residue naturally present in the sequence was replaced with the norleucine because the methionine may be susceptible to oxidation during synthesis and purification. The Trp based assay utilized a peptide having an amino acid residues as follows: Ac-R-H-K-K(Ac)-W-NH2 (SEQ ID NO: 2).
The Trp mass spectrometry assay was conducted as follows. 0.5 μM peptide substrate and 120 μM βNAD^+ were incubated with 10 nM SIRT1 for 25 minutes at 25° C. in a reaction buffer (50 mM HEPES pH 7.5, […] NaCl, 1 mM DTT, 0.05% BSA). The SIRT1 protein was obtained by cloning the SirT1 gene into a T7-promoter containing vector, which was then expressed in BL21(DE3) bacterial cells and purified as described in further detail below. Test compound was added at varying concentrations to this reaction mixture and the resulting reactions were monitored. After the 25 minute incubation with SIRT1, 10 μL of 10% formic acid was added to stop the reaction. The resulting reactions were sealed and frozen for later mass spec analysis. The relative SIRT1 activity was then determined by measuring the amount of 0-acetyl-ADP-ribose (OAADPR) formed (or, alternatively, the amount of deacetylated Trp peptide generated) by the NAD-dependent sirtuin deacetylation reaction in the presence of varying concentrations of the test compound versus control reactions lacking the test compound. The degree to which the test agent activated deacetylation by SIRT1 was expressed as EC1.5 (i.e., the concentration of compound required to increase SIRT1 activity by 50% over the control lacking test compound), and Percent Maximum Activation (i.e., the maximum activity relative to control (100%) obtained for the test compound).
A control for activation of sirtuin activity was conducted using 10 nM of sirtuin protein, with 1 μL of DMSO in place of compound, to determine the amount of deacetylation of the substrate at a given time point within the linear range of the assay. This time point was the same as that used for test compounds and, within the linear range, the endpoint represents a change in velocity.
For the above assay, SIRT1 protein was expressed and purified as follows. The SirT1 gene was cloned into a T7-promoter containing vector and transformed into BL21(DE3). The protein was expressed by induction with 1 mM IPTG as an N-terminal His-tag fusion protein at 18° C. overnight and harvested at 30,000×g. Cells were lysed with lysozyme in lysis buffer (50 mM Tris-HCl, 2 mM Tris[2-carboxyethyl] phosphine (TCEP), 10 μM ZnCl2, 200 mM NaCl) and further treated with sonication for 10 min for complete lysis. The protein was purified over a Ni-NTA column (Amersham) and fractions containing pure protein were pooled, concentrated and run over a sizing column (Sephadex S200 26/60 global). The peak containing soluble protein was collected and run on an Ion-exchange column (MonoQ). Gradient elution (200 mM-500 mM NaCl) yielded pure protein. This protein was concentrated and dialyzed against dialysis buffer (20 mM Iris-HCl, 2 mM TCEP) overnight. The protein was aliquoted and frozen at −80° C. until further use.

Tryp AVG EC1.5 (μM) | Emax [%] | Compound
B (EC1.5 1-25 μM) | ≥ 150 | Cc1cnccc1NC(=O)N1c2nc(C3CCCC(C(F)(F)F)C3)ccc2N2CC[C@H]1C2 (some centres unmarked) [Example 100]
A (EC1.5<1 μM) | ≥ 150 | O=C(Nc1cnccn1)N1c2nc(-c3cccc(Cl)c3)ccc2N2CC[C@H]1C2 [Example 101]
A (EC1.5<1 μM) | ≥ 150 | Cc1nc(NC(=O)N2c3nc(-c4cccc(Cl)c4)ccc3N3CC[C@H]2C3)sc1C [Example 102]
B (EC1.5 1-25 μM) | ≥ 150 | COc1cc(NC(=O)N2c3nc(-c4cccc(Cl)c4)ccc3N3CC[C@H]2C3)nc(OC)n1 [Example 103]
B (EC1.5 1-25 μM) | ≥ 150 | COc1cc(NC(=O)N2c3nc(-c4cccc(Cl)c4)ccc3N3CC[C@H]2C3)ncn1 [Example 104]
B (EC1.5 1-25 μM) | ≥ 150 | Cc1cc(C)nc(NC(=O)N2c3nc(-c4cccc(Cl)c4)ccc3N3CC[C@H]2C3)c1 [Example 105]
C (EC1.5>25 μM) | ≥ 150 | Cc1cccnc1NC(=O)N1c2nc(-c3cccc(Cl)c3)ccc2N2CC[C@H]1C2 [Example 106]
 | ≥ 150 | O=C(Nc1cccnc1)N1c2nc(-c3cccc(Cl)c3)ccc2N2CC[C@H]1C2 [Example 107]
B (EC1.5 1-25 μM) | ≥ 150 | Cn1cc(NC(=O)N2c3nc(-c4cccc(Cl)c4)ccc3N3CC[C@H]2C3)cn1 [Example 108]
B (EC1.5 1-25 μM) | ≥ 150 | Cn1ccc(NC(=O)N2c3nc(-c4cccc(Cl)c4)ccc3N3CC[C@H]2C3)n1 [Example 109]
A (EC1.5<1 μM) | ≥ 150 | O=C(Nc1ccncn1)N1c2nc(-c3cccc(Cl)c3)ccc2N2CC[C@H]1C2 [Example 110]
B (EC1.5 1-25 μM) | ≥ 150 | CC1CN2CC1N(C(=O)Nc1ccncc1)c1nc(-c3cccc(C(F)(F)F)c3)ccc12 (centres unmarked) [Example 114]
A (EC1.5<1 μM) | ≥ 150 | Cn1cc2cc(NC(=O)N3c4nc(-c5cccc(Cl)c5)ccc4N4CC[C@H]3C4)ccc2n1 [Example 118]
A (EC1.5<1 μM) | ≥ 150 | O=C(Nc1cncc(F)c1)N1c2nc(-c3cccc(Cl)c3)ccc2N2CC[C@H]1C2 [Example 119]
A (EC1.5<1 μM) | ≥ 150 | O=C(Nc1ccnnc1)N1c2nc(-c3cccc(Cl)c3)ccc2N2CC[C@H]1C2 [Example 120]
A (EC1.5<1 μM) | ≥ 150 | COc1cncc(NC(=O)N2c3nc(-c4cccc(Cl)c4)ccc3N3CC[C@H]2C3)n1 [Example 121]
A (EC1.5<1 μM) | ≥ 150 | O=C(Nc1ccncc1)N1c2nc(-c3cccc(Cl)c3)ccc2N2CC[C@H]1C2 [Example 122]
C (EC1.5>25 μM) | < 150 | O=C(Nc1ccc(F)cn1)N1c2nc(-c3ccccc3C(F)(F)F)ccc2N2CC[C@H]1C2 [Example 123]
B (EC1.5 1-25 μM) | ≥ 150 | COc1cnc(NC(=O)N2c3nc(-c4cccc(Cl)c4)ccc3N3CC[C@H]2C3)cn1 [Example 124]
A (EC1.5<1 μM) | ≥ 150 | O=C(Nc1ccc(F)cn1)N1c2nc(-c3ccnc(C(F)(F)F)c3)ccc2N2CC[C@H]1C2 [Example 128]

Tryp AVG EC1.5 (μM) | Emax [%] | Compound
A (EC1.5<1 μM) | ≥ 150 | O=C(Nc1ccc(F)cn1)N1c2nc(-c3cccc(OC(F)(F)F)c3)ccc2N2CC[C@H]1C2 [Example 129]
A (EC1.5<1 μM) | ≥ 150 | N#Cc1cccc(-c2ccc3c(n2)N(C(=O)Nc2ccc(F)cn2)[C@H]2CCN3C2)c1 [Example 130]
B (EC1.5 1-25 μM) | ≥ 150 | O=C(Nc1ccc(F)cn1)N1c2nc(-c3cccc(N4CCCC4)c3)ccc2N2CC[C@H]1C2 [Example 131]
B (EC1.5 1-25 μM) | ≥ 150 | COc1cc(NC(=O)N2c3nc(-c4cccc(N5CCCC5)c4)ccc3N3CC[C@H]2C3)ncn1 [Example 132]
A (EC1.5<1 μM) | ≥ 150 | COc1cc(NC(=O)N2c3nc(-c4ccnc(C(F)(F)F)c4)ccc3N3CC[C@H]2C3)ncn1 [Example 133]
C (EC1.5>25 μM) | < 150 | COc1cc(NC(=O)N2c3nc(-c4ccccc4C(F)(F)F)ccc3N3CC[C@H]2C3)ncn1 [Example 134]
A (EC1.5<1 μM) | ≥ 150 | COc1cc(NC(=O)N2c3nc(-c4cccc(OC(F)(F)F)c4)ccc3N3CC[C@H]2C3)ncn1 [Example 135]
A (EC1.5<1 μM) | ≥ 150 | O=C(Nc1ccccn1)N1c2nc(-c3cccc(N4CCCC4)c3)ccc2N2CC[C@H]1C2 [Example 136]
C (EC1.5>25 μM) | < 150 | O=C(Nc1ccccn1)N1c2nc(-c3ccccc3C(F)(F)F)ccc2N2CC[C@H]1C2 [Example 137]
A (EC1.5<1 μM) | ≥ 150 | O=C(Nc1ccccn1)N1c2nc(-c3cccc(OC(F)(F)F)c3)ccc2N2CC[C@H]1C2 [Example 138]
A (EC1.5<1 μM) | ≥ 150 | N#Cc1cccc(-c2ccc3c(n2)N(C(=O)Nc2ccccn2)[C@H]2CCN3C2)c1 [Example 139]
A (EC1.5<1 μM) | ≥ 150 | COc1cc(NC(=O)N2c3nc(-c4cccc(C#N)c4)ccc3N3CC[C@H]2C3)ncn1 [Example 140]
A (EC1.5<1 μM) | ≥ 150 | O=C(Nc1ccc(F)cn1)N1c2nc(-c3cccc(Cl)c3)ccc2N2CCC[C@H]1C2 [Example 141]
A (EC1.5<1 μM) | ≥ 150 | O=C(Nc1ccccn1)N1c2nc(-c3ccnc(C(F)(F)F)c3)ccc2N2CC[C@H]1C2 [Example 142]
B (EC1.5 1-25 μM) | ≥ 150 | O=C(Nc1cccnn1)N1c2nc(C3CCCC(C(F)(F)F)C3)ccc2N2CC[C@H]1C2 (some centres unmarked) [Example 143]
B (EC1.5 1-25 μM) | ≥ 150 | O=C(Nc1ccc(F)cn1)N1c2nc(C3CCCC(C(F)(F)F)C3)ccc2N2CC[C@H]1C2 (some centres unmarked) [Example 144]
A (EC1.5<1 μM) | ≥ 150 | O=C(Nc1cncc(F)c1)N1c2nc(C3CCCC(C(F)(F)F)C3)ccc2N2CC[C@H]1C2 (some centres unmarked) [Example 145]
B (EC1.5 1-25 μM) | ≥ 150 | O=C(Nc1ccc(F)cn1)N1c2nc(-c3cccc(OC[C@@H](O)CO)c3)ccc2N2CC[C@H]1C2 [Example 146]
B (EC1.5 1-25 μM) | ≥ 150 | N#Cc1cccc(-c2ccc3c(n2)N(C(=O)Nc2ccncc2F)[C@H]2CCN3C2)c1 [Example 147]
